The record followed here is ChEMBL document CHEMBL3102798, “Stapled Vasoactive Intestinal Peptide (VIP) Derivatives Improve VPAC2 Agonism and Glucose-Dependent Insulin Secretion” (ACS Med Chem Lett, 2013).

pEC50: −log10 of the molar value. Numbered stars: 1 amine (or outer) side, 2 acyl side, 3 side chain; on linkers, the order of the positions; unused ones are H or OH. Bridge positions count the residues as written; N and C are the ends. Square brackets hold non-standard residues; d marks the D form. Peptide text beside a SMILES is read from it. X1 = C[C@@](CCCCC=[*:3])(N[*:1])C(=O)[*:2]; S5 = C=CCCC[C@](C)(N)C(=O)O A value given as a limit tells only on which side of the number the result lay.

System in one data set: not listed separately
The data set can be described thus: Apparent passive permeability across apical to basolateral side in human Caco2 cells at 10 uM after 30 to 60 mins by LC/MS analysis. In kind it is ADME, cell-based. Conditions: Caco-2. (In general: Caco-2 cells form a polarised layer with tight junctions and transporters.)
In the case of `C=CCCC[C@](C)(NC(=O)[C@H](CCC(N)=O)NC(=O)[C@H](CCCCN)NC(=O)[C@H](CCCN=C(N)N)NC(=O)[C@](C)(CCCC=C)NC(=O)[C@H](CCCN=C(N)N)NC(=O)[C@@H](NC(=O)[C@H](Cc1ccc(O)cc1)NC(=O)[C@H](CC(N)=O)NC(=O)[C@H](CC(=O)O)NC(=O)[C@@H](NC(=O)[C@H](Cc1ccccc1)NC(=O)[C@@H](NC(=O)[C@H](C)NC(=O)[C@H](CC(=O)O)NC(=O)[C@H](CO)NC(=O)[C@@H](N)Cc1cnc[nH]1)C(C)C)[C@@H](C)O)[C@@H](C)O)C(=O)N[C@@H](C)C(=O)N[C@H](C(=O)N[C@@H](CCCCN)C(=O)N[C@@H](CCCCN)C(=O)N[C@@H](Cc1ccc(O)cc1)C(=O)N[C@@H](CC(C)C)C(=O)N[C@@H](CC(N)=O)C(=O)N[C@@H](CO)C(=O)N[C@H](C(=O)N[C@@H](CC(C)C)C(=O)N[C@@H](CC(N)=O)C(=O)NCC(=O)N[C@@H](CCCCN)C(=O)O)[C@@H](C)CC)C(C)C`, the apparent permeability from apical to basolateral (Papp A→B) (in general, how fast a substance crosses the layer from the apical side) at 10 µM was less than 0.1 ×10⁻⁶ cm/s.

System in the next data set: not listed separately
The data set can be described thus: Stability of the compound in phosphate buffer assessed as compound remaining at pH 7.4 after 15 mins by LC-MS-MS analysis in presence of trypsin. The data set is classed as ADME. The settings on record: phosphate buffer with trypsin, read-out: Stability.
Regarding `C=CCCC[C@](C)(NC(=O)[C@H](CCC(N)=O)NC(=O)[C@H](CCCCN)NC(=O)[C@H](CCCN=C(N)N)NC(=O)[C@](C)(CCCC=C)NC(=O)[C@H](CCCN=C(N)N)NC(=O)[C@@H](NC(=O)[C@H](Cc1ccc(O)cc1)NC(=O)[C@H](CC(N)=O)NC(=O)[C@H](CC(=O)O)NC(=O)[C@@H](NC(=O)[C@H](Cc1ccccc1)NC(=O)[C@@H](NC(=O)[C@H](C)NC(=O)[C@H](CC(=O)O)NC(=O)[C@H](CO)NC(=O)[C@@H](N)Cc1cnc[nH]1)C(C)C)[C@@H](C)O)[C@@H](C)O)C(=O)N[C@@H](C)C(=O)N[C@H](C(=O)N[C@@H](CCCCN)C(=O)N[C@@H](CCCCN)C(=O)N[C@@H](Cc1ccc(O)cc1)C(=O)N[C@@H](CC(C)C)C(=O)N[C@@H](CC(N)=O)C(=O)N[C@@H](CO)C(=O)N[C@H](C(=O)N[C@@H](CC(C)C)C(=O)N[C@@H](CC(N)=O)C(=O)NCC(=O)N[C@@H](CCCCN)C(=O)O)[C@@H](C)CC)C(C)C`, the remaining at 0.25 h was 0.7%.

For another data set, the target named is T1, Vasoactive intestinal polypeptide receptor 2 (Homo sapiens, UniProt P41587).
T1 sequence (P41587 whole entry): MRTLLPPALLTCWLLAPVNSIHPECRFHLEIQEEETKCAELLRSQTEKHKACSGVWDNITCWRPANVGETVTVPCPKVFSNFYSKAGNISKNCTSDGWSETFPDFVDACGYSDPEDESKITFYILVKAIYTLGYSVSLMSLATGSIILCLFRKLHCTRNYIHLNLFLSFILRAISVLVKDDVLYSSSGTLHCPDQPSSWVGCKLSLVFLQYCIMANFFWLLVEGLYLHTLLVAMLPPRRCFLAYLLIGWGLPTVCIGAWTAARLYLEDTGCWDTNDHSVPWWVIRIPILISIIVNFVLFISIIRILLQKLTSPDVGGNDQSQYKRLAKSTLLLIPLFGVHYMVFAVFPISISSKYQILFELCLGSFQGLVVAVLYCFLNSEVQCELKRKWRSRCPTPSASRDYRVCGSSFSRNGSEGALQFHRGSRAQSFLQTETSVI
The data set can be described thus: Agonist activity at human VPAC2 expressed in CHO Flp-in cells assessed as accumulation of cAMP after 30 mins by TR-FRET assay. The data set is classed as functional, cell-based.
Details: not given
Take `C=CCCC[C@](C)(NC(=O)[C@H](CCC(N)=O)NC(=O)[C@H](CCCCN)NC(=O)[C@H](CCCN=C(N)N)NC(=O)[C@](C)(CCCC=C)NC(=O)[C@H](CCCN=C(N)N)NC(=O)[C@@H](NC(=O)[C@H](Cc1ccc(O)cc1)NC(=O)[C@H](CC(N)=O)NC(=O)[C@H](CC(=O)O)NC(=O)[C@@H](NC(=O)[C@H](Cc1ccccc1)NC(=O)[C@@H](NC(=O)[C@H](C)NC(=O)[C@H](CC(=O)O)NC(=O)[C@H](CO)NC(=O)[C@@H](N)Cc1cnc[nH]1)C(C)C)[C@@H](C)O)[C@@H](C)O)C(=O)N[C@@H](C)C(=O)N[C@H](C(=O)N[C@@H](CCCCN)C(=O)N[C@@H](CCCCN)C(=O)N[C@@H](Cc1ccc(O)cc1)C(=O)N[C@@H](CC(C)C)C(=O)N[C@@H](CC(N)=O)C(=O)N[C@@H](CO)C(=O)N[C@H](C(=O)N[C@@H](CC(C)C)C(=O)N[C@@H](CC(N)=O)C(=O)NCC(=O)N[C@@H](CCCCN)C(=O)O)[C@@H](C)CC)C(C)C`: the pEC50 – broadly, the EC50 on a negative log10 scale, so that one unit is a factor of ten – was 8.86.

For the compound `CC[C@H](C)[C@H](NC(=O)[C@H](CO)NC(=O)[C@H](CC(N)=O)NC(=O)[C@H](CC(C)C)NC(=O)[C@H](Cc1ccc(O)cc1)NC(=O)[C@H](CCCCN)NC(=O)[C@H](CCCCN)NC(=O)[C@@H](NC(=O)[C@H](C)NC(=O)[C@@H]1CCCCNC(=O)CC[C@H](NC(=O)[C@H](CCCN=C(N)N)NC(=O)[C@@H](NC(=O)[C@H](Cc2ccc(O)cc2)NC(=O)[C@H](CC(N)=O)NC(=O)[C@H](CC(=O)O)NC(=O)[C@@H](NC(=O)[C@H](Cc2ccccc2)NC(=O)[C@@H](NC(=O)[C@H](C)NC(=O)[C@H](CC(=O)O)NC(=O)[C@H](CO)NC(=O)[C@@H](N)Cc2cnc[nH]2)C(C)C)[C@@H](C)O)[C@@H](C)O)C(=O)N[C@@H](CCCN=C(N)N)C(=O)N[C@@H](CCCCN)C(=O)N[C@@H](CCC(N)=O)C(=O)N1)C(C)C)C(=O)N[C@@H](CC(C)C)C(=O)N[C@@H](CC(N)=O)C(=O)NCC(=O)N[C@@H](CCCCN)C(=O)O` (H-HSDAVFTDNYTRERKQKAVKKYLNSILNGK-OH; lactam 13-17), the pEC50 was 8.94.

Turning to `CC[C@H](C)[C@H](NC(=O)[C@H](CCC(N)=O)NC(=O)[C@H](CCCCN)NC(=O)[C@H](CCCNC(=N)N)NC(=O)[C@H](CC(C)C)NC(=O)[C@H](CCCNC(=N)N)NC(=O)[C@@H](NC(=O)[C@H](Cc1ccc(O)cc1)NC(=O)[C@H](CC(N)=O)NC(=O)[C@H](CC(=O)O)NC(=O)[C@@H](NC(=O)[C@H](Cc1ccccc1)NC(=O)[C@@H](NC(=O)[C@H](C)NC(=O)[C@H](CC(=O)O)NC(=O)[C@H](CO)NC(=O)[C@@H](N)Cc1cnc[nH]1)C(C)C)[C@@H](C)O)[C@@H](C)O)C(=O)N[C@@H](C)C(=O)N[C@H](C(=O)N[C@@H](CCCCN)C(=O)N[C@H]1CCC(=O)NCCCC[C@@H](C(=O)N[C@H](C(=O)N[C@@H](CC(C)C)C(=O)N[C@@H](CC(N)=O)C(=O)NCC(=O)N[C@@H](CCCCN)C(=O)O)[C@@H](C)CC)NC(=O)[C@H](CC(N)=O)NC(=O)[C@H](CC(C)C)NC(=O)[C@H](Cc2ccc(O)cc2)NC1=O)C(C)C` (H-HSDAVFTDNYTRLRKQIAVKEYLNKILNGK-OH; lactam 21-25), the pEC50 was 9.96.

Take `C=CCCC[C@](C)(NC(=O)[C@H](CC(C)C)NC(=O)[C@@H](NC(=O)[C@H](CO)NC(=O)[C@](C)(CCCC=C)NC(=O)[C@H](CC(C)C)NC(=O)[C@H](Cc1ccc(O)cc1)NC(=O)[C@H](CCCCN)NC(=O)[C@H](CCCCN)NC(=O)[C@@H](NC(=O)[C@H](C)NC(=O)[C@@H](NC(=O)[C@H](CCC(N)=O)NC(=O)[C@H](CCCCN)NC(=O)[C@H](CCCNC(=N)N)NC(=O)[C@H](CC(C)C)NC(=O)[C@H](CCCNC(=N)N)NC(=O)[C@@H](NC(=O)[C@H](Cc1ccc(O)cc1)NC(=O)[C@H](CC(N)=O)NC(=O)[C@H](CC(=O)O)NC(=O)[C@@H](NC(=O)[C@H](Cc1ccccc1)NC(=O)[C@@H](NC(=O)[C@H](C)NC(=O)[C@H](CC(=O)O)NC(=O)[C@H](CO)NC(=O)[C@@H](N)Cc1cnc[nH]1)C(C)C)[C@@H](C)O)[C@@H](C)O)[C@@H](C)CC)C(C)C)[C@@H](C)CC)C(=O)NCC(=O)N[C@@H](CCCCN)C(=O)O` (H-HSDAVFTDNYTRLRKQIAVKKYL[S5]SIL[S5]GK-OH): the pEC50 is 9.68.

In the case of `CC[C@H](C)[C@H](NC(=O)[C@H](CCC(N)=O)NC(=O)[C@H](CCCCN)NC(=O)[C@H](CCCNC(=N)N)NC(=O)[C@H](CC(C)C)NC(=O)[C@H](CCCNC(=N)N)NC(=O)[C@@H](NC(=O)[C@H](Cc1ccc(O)cc1)NC(=O)[C@H](CC(N)=O)NC(=O)[C@H](CC(=O)O)NC(=O)[C@@H](NC(=O)[C@H](Cc1ccccc1)NC(=O)[C@@H](NC(=O)[C@H](C)NC(=O)[C@H](CC(=O)O)NC(=O)[C@H](CO)NC(=O)[C@@H](N)Cc1cnc[nH]1)C(C)C)[C@@H](C)O)[C@@H](C)O)C(=O)N[C@@H](C)C(=O)N[C@H](C(=O)N[C@@H](CCCCN)C(=O)N[C@@H](CCCCN)C(=O)N[C@@H](Cc1ccc(O)cc1)C(=O)N[C@@H](CC(C)C)C(=O)N[C@@]1(C)CCCC/C=C\CCCC[C@@](C)(C(=O)NCC(=O)N[C@@H](CCCCN)C(=O)O)NC(=O)[C@H](CC(C)C)NC(=O)[C@H]([C@@H](C)CC)NC(=O)[C@H](CO)NC1=O)C(C)C` (H-HSDAVFTDNYTRLRKQIAVKKYL[X1]SIL[X1]GK-OH; staple (Z) 24-28), the pEC50 was 9.41.
